This assay deals with Male C57BL/6 mice. The assay can be described thus: oral glucose tolerance test in mice. Type of assay: in vivo. To be noted: oral glucose 3 g/kg at 0 min, versus vehicle. As for the experimental part: All animal experiments described below and listed in Table 1 were performed in accordance to Austrian law and the principles of good laboratory animal care. Data shown in Table 1 are obtained using commercially available male mice purchased, e.g. from the breeding facilities of Charles River Lab. (USA). Male C57BL/6 mice were used at the age of 7-30 weeks and had free access to a standard laboratory chow diet (kg/kg: <10% crude fat) and water except for defined fasting periods before experimentation. They were maintained at room temperature and a 12 h/12 h light-dark cycle.
The antidiabetic activities of the products listed in Table 1 were evaluated in oral glucose tolerance tests in mice, in analogy to the procedure known to the general physician. Mice were fasted for 8-12 hours prior to oral glucose tolerance testing. For biological testing, the products listed in Table 1 were dissolved or suspended in 0.5% carboxymethylcellulose containing 1-2% acetic acid. A control group receiving no test product was examined in parallel in each test run. The control group received the same amount of a 0.5% carboxymethylcellulose solution containing 1-2% acetic acid (vehicle). Administration of products listed in Table 1 or vehicle at T=−45 min was followed after 45 min by oral administration via gavage of a glucose solution (3 g/kg) at T=0 min. Blood was collected via puncture of the tip of the tail immediately before administration of products listed in Table 1 or vehicle, immediately before administration of glucose, and at T=30 min and/or T=90 and/or T=150 as the case may be. Blood glucose was determined using portable glucometers as commonly used in human diabetes.
The increment in blood glucose at T=min over levels measured at T=0 min was calculated for each animal. Mean values of the increment for treatment group and vehicle group were compared (typical group size n=6-10 mice). Percent reduction induced by products listed in Table 1 versus vehicle was the readout parameter for glucose-lowering activity. As listed in Table 1, an effect of 1 means a reduction of more than 15% of incremental blood glucose at the given time point T=min versus vehicle group.
Antidiabetic effects of products are listed in Table 1 as evaluated in a glucose tolerance test in mice.

The mark [1] stands for this setting: product dose 90 mg/kg per os at -45 min, glucose measurement at 30 min.
[2] abbreviates: product dose 45 mg/kg per os at -45 min, glucose measurement at 30 min.

Molecules are shown by their SMILES.

`CC1(c2ccccc2)CCC2(C)CC(=O)CCN2C1` (stereo not shown) [Product 3a, 7,9a-dimethyl-7-phenyloctahydro-2H-quinolizin-2-one]: the Antidiabetic activity under setting [1] is 1 (an effect of 1 means a reduction of more than 15% of incremental blood glucose at the given time point T=min versus vehicle group).

For the molecule `CC1(c2ccc(F)cc2)CCC2(C)CC(=O)CCN2C1` (stereo not shown) [Product 3b, 7-(4-fluorophenyl)-7,9a-dimethyloctahydro-2H-quinolizin-2-one], the Antidiabetic activity under setting [1] is given as 1 (an effect of 1 means a reduction of more than 15% of incremental blood glucose at the given time point T=min versus vehicle group).

In the case of `CC1(c2ccccc2)CCC2(C)CC3(CCCO3)CCN2C1` (stereo not shown) [Product 5a, 7′,9a′-dimethyl-7′-phenyldecahydro-3H-spiro[furan-2,2′-quinolizine]], the Antidiabetic activity (product dose 22.5 mg/kg per os at -45 min, glucose measurement at 30 min) was 1 (an effect of 1 means a reduction of more than 15% of incremental blood glucose at the given time point T=min versus vehicle group); the Antidiabetic activity (product dose 90 mg/kg per os at -45 min, glucose measurement at 90 min) is 1 (an effect of 1 means a reduction of more than 15% of incremental blood glucose at the given time point T=min versus vehicle group); the Antidiabetic activity (product dose 90 mg/kg per os at -45 min, glucose measurement at 150 min) was 1 (an effect of 1 means a reduction of more than 15% of incremental blood glucose at the given time point T=min versus vehicle group).

In the case of `CC1(c2ccc(F)cc2)CCC2(C)CC3(CCCO3)CCN2C1` (stereo not shown) [Product 5b, 7′-(4-fluorophenyl)-7′,9a′-dimethyldecahydro-3H-spiro[furan-2,2′-quinolizine]], under setting [2], the Antidiabetic activity was 1 (an effect of 1 means a reduction of more than 15% of incremental blood glucose at the given time point T=min versus vehicle group).

Take `CC1(c2ccc(F)cc2)CCC2(C)CC3(CCC(=O)O3)CCN2C1` (stereo not shown) [Product 6b, 7′-(4-fluorophenyl)-7′,9a′-dimethyldecahydro-5H-spiro[furan-2,2′-quinolizine]-5-one]: the Antidiabetic activity under setting [2] is reported as 1 (an effect of 1 means a reduction of more than 15% of incremental blood glucose at the given time point T=min versus vehicle group).
